The source of these data is article PMC6006285, “Specific stereochemistry of OP-1074 disrupts estrogen receptor alpha helix 12 and confers pure antiestrogenic activity” (Nature Communications, 2018).

A short description of data set [1]: Pharmacokinetics in mouse plasma at conclusion of xenograft study. It counts as in vivo.
The test system of data set [2] is MCF-7 cells. The data set is described as follows: Inhibition of E2-stimulated proliferation of MCF-7 cells. It is filed as cell-based. As to conditions: Homo sapiens.
Data set [3] relates to AP activity in Ishikawa uterine cells. The data set is described as follows: Alkaline phosphatase (AP) assay, agonist mode (absence of E2). It is filed as cell-based, human. As for the experimental part: (§1) Our primary screen to distinguish pure antiestrogens from SERMs was induction of alkaline phosphatase (AP) activity in Ishikawa uterine cells. […] The reference SERM used in our screen was endoxifen (N-desmethyl-4-hydroxytamoxifen), the most abundant bioactive metabolite of tamoxifen.
(§2) Shown is a representative figure analyzed and presented as above.
(§3) At least 4 h later cells were treated with antiestrogens and media was diluted to 2.5% stripped FBS. Cells were incubated for 3 days, media removed and plates frozen at −80 °C. Thawed plates were incubated with a chromogenic substrate of AP, p-nitrophenyl phosphate (ThermoFisher Scientific, #36721), for 40–60 min at 40 °C, and absorbance read at 405 nm on the Varioskan Lux multimodal plate reader (ThermoFisher Scientific, #VLBL00D0).

The subject of data set [4] is CAMA-1 cells. Kind of data set: Inhibition of E2-stimulated proliferation of CAMA-1 cells. The conditions noted are these: Homo sapiens, CAMA-1, 192 h; read-out: CAMA-1 IC50 proliferation (Fig. 3c). It counts as cell-based. As to the method: Shown is a representative figure analyzed and presented as above. d, Western blot of destabilization of ERα protein by OP-1074.
Proliferation was measured using CyQuant fluorescent DNA-binding dye kit (ThermoFisher Scientific, #C7026) using 1:200 GR dye and reading fluorescence at 485 nm excitation and 538 nm emission on the Varioskan Lux multimodal plate reader.

In data set [5] the target is T1, ERα (Homo sapiens, UniProt P03372).
T1 construct: endogenous in cells
T1 sequence (P03372 1-595): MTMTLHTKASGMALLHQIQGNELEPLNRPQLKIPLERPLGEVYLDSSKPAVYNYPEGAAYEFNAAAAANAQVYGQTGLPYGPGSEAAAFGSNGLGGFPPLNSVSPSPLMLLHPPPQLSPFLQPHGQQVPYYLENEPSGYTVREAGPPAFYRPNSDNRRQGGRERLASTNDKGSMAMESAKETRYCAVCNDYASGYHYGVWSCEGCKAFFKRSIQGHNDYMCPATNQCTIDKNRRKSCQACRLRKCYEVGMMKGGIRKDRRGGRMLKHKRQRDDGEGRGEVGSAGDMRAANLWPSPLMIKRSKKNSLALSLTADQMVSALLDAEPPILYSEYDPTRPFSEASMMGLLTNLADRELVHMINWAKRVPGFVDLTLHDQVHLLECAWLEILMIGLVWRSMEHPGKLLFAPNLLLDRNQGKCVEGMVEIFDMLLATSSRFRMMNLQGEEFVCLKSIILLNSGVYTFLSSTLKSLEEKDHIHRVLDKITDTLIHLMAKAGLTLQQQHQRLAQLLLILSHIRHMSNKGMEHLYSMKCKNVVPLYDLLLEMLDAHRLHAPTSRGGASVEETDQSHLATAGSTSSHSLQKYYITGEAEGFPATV
Kind of data set: ERα protein levels by immunoblotting. It counts as cell-based. As to conditions: MCF-7 cells, 100 nM ligand, 24 h, means of n experiments ±s.d. As to the method:
However, it is conceivable that under some clinical contexts SERD activity may still be a desirable feature by reducing the number of functional receptors in tumors.
Imaging was performed on FluorChem Imager by Alpha Innotech. […] An uncropped image of the immunoblot is shown in Supplementary Fig. 5.

The subject of data set [6] is E2-stimulated AP activity in Ishikawa cells. The data set is described as follows: Alkaline phosphatase (AP) assay, antagonist mode (presence of 500 pM E2). It is filed as cell-based, human. As to the method:
as §1, §2, §3

The mark [7] stands for this setting: female, athymic nude, mouse plasma, final dose, 100 mg/kg oral gavage twice daily.

Molecules are shown by their SMILES. Where “and” joins values, the source holds several entries; their conditions need not be identical. Equal entries are not always repeated. Where two headings read alike, the source gives them in different places.

Take `CC1=C(c2ccc(O)cc2)[C@H](c2ccc(OCCN3CC[C@@H](C)C3)cc2)Oc2cc(O)ccc21` [OP-1074]: the Cmax came out at 1280 ng/mL in data set [1] (female, athymic nude, oral, 100 mg/kg, mouse plasma, final dose, over a 24-h period, read-out: Cmax (Fig. 7c)) and 1300 ng/mL in data set [1] (female, athymic nude, mouse plasma, final dose, 100 mg/kg oral gavage twice daily, read-out: Cmax). Further, in data set [1] (setting [7]), the AUC stood at 8200 ng·h/mL. In addition, the time to peak (Tmax) in data set [1] (setting [7]) came out at 1.5 h. The half-life in data set [1] (setting [7]) was 3.01 h. Besides, the “Oral bioavailability” value in data set [1] (mouse, 100 mg/kg oral gavage twice daily) is on record as “good oral bioavailability”. Besides, the IC50 in data set [2] (MCF7, 168 h, read-out: MCF-7 IC50 proliferation (Fig. 3b)) turned out to be 9.2 nM; in data set [2] (MCF7, read-out: IC50 proliferation) it was 7.2 ± 0.9 nM; in data set [4], 5.7 nM; in data set [6] (Homo sapiens, Ishikawa, 72 h, read-out: IC50 inhibition of E2-stimulated AP activity), 20 nM. Moreover, the “Maximal AP activity in agonist mode relative to E2 control” value in data set [3] (3 days, absence of E2, normalized to 500 pM E2, representative experiment (Fig. 2a)) is 8%. For the same compound, the “Induction of AP activity (% E2)” value in data set [3] (Maximum AP activity observed relative to positive control, 500 pM E2, means of n independent experiments ±s.d.) is listed as 10% ± 4.4 (n = 29) % E2. The “Relative ERα protein levels (% vehicle)” value in data set [5] was 49 % vehicle and 49% ± 13 (n = 15) % vehicle. For the same compound, the “Antagonism of E2-stimulated AP activity” value in data set [6] (Ishikawa cells, 500 pM E2) is “completely antagonized E2”.

What is called Cmax is the highest concentration seen after dosing. By AUC is commonly meant concentration integrated over time. High values mean high exposure, low ones low exposure. By Tmax is commonly meant the time at which the peak concentration occurs. By half-life is commonly meant the time needed for the level to fall by half in the phase considered.
